This note sets out measurements from ChEMBL document CHEMBL5032491, “New Dibenzoquinoxalines Inhibit Triple-Negative Breast Cancer Growth by Dual Targeting of Topoisomerase 1 and the c-MYC G-Quadruplex” (J Med Chem, 2021).

Activity calls are given as the source filed them. The calls are words filed in the database; no cut-off is given here.

The subject of data set [1] is Quadruplex DNA. The data set can be described thus: Inhibition of c-myc G4-quadruplex DNA transcriptional activity in human MDA-MB-231 cells incubated for 24 hrs by RT-PCR analysis. The class given is cell-based.
For data set [2], the system named is MDA-MB-231. The data set can be described thus: Antiproliferative activity against human MDA-MB-231 cells assessed as inhibition of cell growth incubated for 24 hrs by CCK8 assay. It is filed as functional, cell-based. Particulars: MDA-MB-231, 24 h.
Data set [3] has as its target T1, DNA topoisomerase 1 (Homo sapiens) (UniProt P11387).
T1 sequence (whole entry): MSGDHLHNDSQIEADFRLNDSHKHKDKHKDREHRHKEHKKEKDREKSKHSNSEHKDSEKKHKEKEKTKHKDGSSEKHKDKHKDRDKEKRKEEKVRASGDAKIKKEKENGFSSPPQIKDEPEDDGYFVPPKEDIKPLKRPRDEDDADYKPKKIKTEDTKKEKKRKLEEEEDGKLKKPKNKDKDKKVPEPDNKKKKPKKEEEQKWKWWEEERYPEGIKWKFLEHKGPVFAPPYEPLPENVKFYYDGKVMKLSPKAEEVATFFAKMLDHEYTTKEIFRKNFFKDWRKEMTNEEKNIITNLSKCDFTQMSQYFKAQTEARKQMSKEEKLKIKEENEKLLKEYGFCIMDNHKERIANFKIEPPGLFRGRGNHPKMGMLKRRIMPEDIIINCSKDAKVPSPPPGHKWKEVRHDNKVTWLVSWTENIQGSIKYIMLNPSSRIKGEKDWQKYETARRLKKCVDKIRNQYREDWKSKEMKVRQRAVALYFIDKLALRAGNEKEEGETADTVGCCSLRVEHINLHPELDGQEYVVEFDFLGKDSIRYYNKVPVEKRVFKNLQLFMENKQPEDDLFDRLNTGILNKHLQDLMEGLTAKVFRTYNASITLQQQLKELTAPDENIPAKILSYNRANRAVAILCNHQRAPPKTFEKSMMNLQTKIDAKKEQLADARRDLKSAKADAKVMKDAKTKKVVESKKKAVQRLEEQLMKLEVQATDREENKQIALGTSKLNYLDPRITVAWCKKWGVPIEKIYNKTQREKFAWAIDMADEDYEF
The data set can be described thus: Inhibition of human topoisomerase 1 mediated relaxation of supercoiled pHOT1 DNA at 5 to 20 uM incubated for 30 mins by agarose gel electrophoresis. The settings on record: dose 5-20 µM.

Data set [4] deals with T1, DNA topoisomerase 1 (Homo sapiens). The data set can be described thus: Inhibition of human topoisomerase 1 assessed as DNA intercalation at 1.2 uM using relaxed pHOT-1 DNA as substrate preincubated with DNA for 10 mins followed by enzyme addition and measured after 30 mins by agarose gel electrophoresis. The settings on record: time 40.0 min.
In data set [5] the test system is MDA-MB-231. The data set can be described thus: Antitumor activity against human MDA-MB-231 cells xenografted in BALB/c mouse assessed as tumor growth inhibition measured at 2.5 mg/kg, ip administered every other day for 20 days. The class given is functional. Particulars: time 20.0 day. In general terms: In xenograft studies the graft and the host belong to different species.

The test system of data set [6] is MDA-MB-231. As to the kind of experiment: Antiproliferative activity against human MDA-MB-231 cells assessed as inhibition in cell growth at 20 uM incubated for 24 hrs by CCK8 assay. The class given is functional, cell-based.
A short description of data set [7]: Toxicity in human MDA-MB-231 cells xenografted BALB/c mouse assessed as body weight loss at 2.5 mg/kg, ip administered every other day for 20 days. It is filed as organism-based. Particulars: in vivo, 480 h, time 20 day.

Take `CN1CCN(c2ccc3c(c2)c2cc(N4CCN(C)CC4)ccc2c2nc4cnccc4nc32)CC1`: the inhibition result in data set [1] is “inactive”. For the same compound, in data set [2], the IC50 stood at 17500 nM. In data set [3], the inhibition entry was “Active”.
Regarding `CC[n+]1c(-c2ccccc2)c2cc(N)ccc2c2ccc(N)cc21`, the inhibition entry in data set [4] was “Active”.
As to `CN1CCN(c2ccc3c(c2)c2cc(N4CCN(C)CC4)ccc2c2nc4cc(Oc5ccccc5)ccc4nc32)CC1`, the inhibition result in data set [1] and in data set [3] was “inactive” in each case. Also, in data set [2], the IC50 amounted to 2200 nM.
Turning to `CN1CCN(c2ccc(-c3nc4cc(F)c(F)cc4nc3-c3ccc(N4CCN(C)CC4)cc3)cc2)CC1`, in data set [1], the inhibition result was “Active”. In addition, in data set [2], the IC50 amounted to 1900 nM. In addition, the inhibition result in data set [3] is “inactive”.
`CN1CCN(c2ccc3c(c2)c2cc(N4CCN(C)CC4)ccc2c2nc4ccccc4nc32)CC1`: the inhibition result in data set [1] and in data set [3] was “Active” in each case. Moreover, the IC50 in data set [2] was 1100 nM.
As to `CN1CCN(c2ccc3c(c2)c2cc(N4CCN(C)CC4)ccc2c2nc4cc(C(F)(F)F)ccc4nc32)CC1`, the inhibition entry in data set [1] and in data set [3] was “inactive” in each case. The 50% inhibitory concentration (IC50) in data set [2] was found to be 5600 nM.
With `COc1cccc2c1C(=O)c1c(O)c3c(c(O)c1C2=O)C[C@@](O)(C(=O)CO)C[C@@H]3O[C@H]1C[C@H](N)[C@H](O)[C@H](C)O1` [DOXORUBICIN], the Activity entry is “Dose-Dependent Effect” in data set [5] and “Toxic” in data set [7]. Besides, the result in data set [6] was Active.
With `CC1CCN(c2cc3nc4c5ccc(N6CCN(C)CC6)cc5c5cc(N6CCN(C)CC6)ccc5c4nc3cc2F)CC1`, the inhibition entry in data set [1] and in data set [3] was “inactive” in each case. For the same compound, the IC50 in data set [2] was 9800 nM.
For the compound `COc1cc2nc3c4ccc(N5CCN(C)CC5)cc4c4cc(N5CCN(C)CC5)ccc4c3nc2cc1OC`, the inhibition entry in data set [1] and in data set [3] was “inactive” throughout. Also, the IC50 in data set [2] came out at 16800 nM.
For `CN1CCN(c2ccc3c(c2)c2cc(N4CCN(C)CC4)ccc2c2nc4cc5c(cc4nc32)N(C)CCN5C)CC1`, the inhibition result in data set [1] is “inactive”. Further, the IC50 in data set [2] stood at 3100 nM.
Consider `CN1CCN(c2ccc3c(c2)c2cc(N4CCN(C)CC4)ccc2c2nc4cc(F)ccc4nc32)CC1`, for which the inhibition result in data set [1] and in data set [3] was “Active” each time. Further, in data set [2], the IC50 was 1100 nM.
For `CN1CCN(c2ccc3c(c2)c2cc(N4CCN(C)CC4)ccc2c2nc4cc(F)c(F)cc4nc32)CC1`, the IC50 in data set [2] amounted to 2100 nM. Further, the inhibition result in data set [3] was “Active”.
For `Cc1cc2nc3c4ccc(N5CCN(C)CC5)cc4c4cc(N5CCN(C)CC5)ccc4c3nc2cc1C`, the inhibition result in data set [1] and in data set [3] was “Active” each time. In addition, in data set [2], the IC50 was 2700 nM.
Regarding `CN1CCN(c2ccc3c(c2)c2cc(N4CCN(C)CC4)ccc2c2nc4cc5ccccc5cc4nc32)CC1`, the IC50 in data set [2] came out at 5400 nM.

A word on the IC50: it is the concentration that gives 50% inhibition.
